Assay results: ChEMBL document CHEMBL2311280, “Protein tyrosine phosphatase 1B inhibitory effect by dammarane-type triterpenes from hydrolyzate of total Gynostemma pentaphyllum saponins” (Bioorg Med Chem Lett, 2013)

Molecular target: T1, Tyrosine-protein phosphatase non-receptor type 1 (Homo sapiens, UniProt P18031)
T1 sequence (P18031 whole entry): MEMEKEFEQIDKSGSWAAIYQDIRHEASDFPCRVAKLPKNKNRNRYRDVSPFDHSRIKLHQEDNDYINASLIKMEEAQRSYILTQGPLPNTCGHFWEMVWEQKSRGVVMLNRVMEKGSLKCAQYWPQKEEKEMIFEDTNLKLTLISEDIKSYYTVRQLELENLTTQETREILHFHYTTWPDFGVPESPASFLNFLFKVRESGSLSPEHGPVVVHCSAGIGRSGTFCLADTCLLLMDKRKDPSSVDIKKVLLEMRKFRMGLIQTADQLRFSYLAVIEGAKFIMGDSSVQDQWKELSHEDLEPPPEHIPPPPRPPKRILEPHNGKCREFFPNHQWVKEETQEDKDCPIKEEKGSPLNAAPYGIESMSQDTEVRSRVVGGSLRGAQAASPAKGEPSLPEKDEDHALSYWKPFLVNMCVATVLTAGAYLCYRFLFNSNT
Assay: Inhibition of PTP1B (unknown origin)

Row | IC50 | SMILES
1 | 27.8 µM | CC(C)=C[C@@H]1C[C@](O)([C@H]2CC[C@]3(C)[C@@H]2CC[C@@H]2[C@@]4(C)CC[C@H](O)C(C)(C)[C@@H]4CC[C@]23C)C(=O)O1
2 | 13.1 µM | CC1(C)[C@@H](O)CC[C@]2(C)[C@H]3CC[C@@H]4[C@@H](C(=O)O)CC[C@@]4(C)[C@]3(C)CC[C@@H]12
3 | 49 µM | CC(C)(O)C[C@@H]1C=C([C@H]2CC[C@]3(C)[C@@H]2CC[C@@H]2[C@@]4(C)CC[C@H](O)C(C)(C)[C@@H]4CC[C@]23C)C(=O)O1 [GYPENSAPOGENIN F]
4 | 23 µM | CC(C)(O)C[C@H]1C=C([C@H]2CC[C@]3(C)[C@@H]2CC[C@@H]2[C@@]4(C)CC[C@H](O)C(C)(C)[C@@H]4CC[C@]23C)C(=O)O1 [GYPENSAPOGENIN E]
5 | > 50 µM | C/C(=C/CCC(C)(C)O)[C@H]1CC[C@]2(C)[C@@H]1[C@H](O)C[C@@H]1[C@@]3(C)CC[C@H](O)C(C)(C)[C@@H]3CC[C@]12C
6 | > 50 µM | C=C(C)CCC[C@](C)(O)[C@H]1CC[C@]2(C)[C@@H]1[C@H](O)C[C@@H]1[C@@]3(C)CC[C@H](O)C(C)(C)[C@@H]3CC[C@]12C
7 | > 50 µM | C=C(C)[C@@H](O)CC[C@](C)(O)[C@H]1CC[C@]2(C)[C@@H]1[C@H](O)C[C@@H]1[C@@]3(C)CC[C@H](O)C(C)(C)[C@@H]3CC[C@]12C
8 | 15.2 µM | CC(C)=CCC[C@@](O)(CO)[C@H]1CC[C@]2(C)[C@@H]1CC[C@@H]1[C@@]3(C)CC[C@H](O)C(C)(C)[C@@H]3CC[C@]12C
9 | 24.5 µM | CC(C)=C1CC([C@H]2CC[C@]3(C)[C@@H]2CC[C@@H]2C4=C(CC[C@]23C)C(C)(C)[C@@H]2CC[C@H]4O2)=CC1=O [GYPENSAPOGENIN B]
10 | 8.4 µM | CC(C)=C[C@H]1C[C@@](O)([C@H]2CC[C@]3(C)[C@@H]2CC[C@@H]2[C@@]4(C)CC[C@H](O)C(C)(C)[C@@H]4CC[C@]23C)C(=O)O1
11 | 24.5 µM | CC(=O)O[C@H]1CC[C@]2(C)[C@H]3CC[C@@H]4[C@@H](C5=C[C@H](CC(C)(C)O)OC5=O)CC[C@@]4(C)[C@]3(C)CC[C@H]2C1(C)C [GYPENSAPOGENIN G]

Row | SMILES | IC50
12 | CC(C)=C1CC=C([C@H]2CC[C@]3(C)[C@@H]2CC[C@@H]2[C@@]4(C)CC[C@H](O)C(C)(C)[C@@H]4CC[C@]23C)C1=O [GYPENSAPOGENIN C] | > 50 µM
13 | CC(C)=C[C@H]1C=C([C@H]2CC[C@]3(C)[C@@H]2CC[C@@H]2[C@@]4(C)CC[C@H](O)C(C)(C)[C@@H]4CC[C@]23C)C(=O)O1 [GYPENSAPOGENIN D] | > 50 µM
14 | CC(C)=CCC[C@](C)(O)[C@H]1CC[C@]2(C)[C@@H]1[C@H](O)C[C@@H]1[C@@]3(C)CC[C@H](O)C(C)(C)[C@@H]3CC[C@]12C | 23.6 µM
